Test results from EP2131831B1, “[…] ACIDS AND POLY-L-LYSINE FOR COMBATING […]-ORGANISMS” (priority 2007, dated 2008).

Assays:
[1] = system: Escherichia coli ou Staphylococcus aureus; assay: Visual comparison of bactericidal activity, free fatty acids vs conjugates; type: cell-based; parameters: key to Activité bactéricide sur Escherichia coli ou Staphylococcus aureus de l'acide gras seul: 0: pas d'activité, culture négative; +: correspond à 10^3 colonies; ++: correspond à 10^4 colonies; +++: correspond à 10^6 colonies; ++++: correspond à 10^7 colonies; settings: visual scale; for Activité bactéricide sur Escherichia coli ou Staphylococcus aureus du conjugué: conjugate of the named fatty acid according to the invention; for Activité bactéricide sur Escherichia coli ou Staphylococcus aureus de l'acide gras seul: free, unbound fatty acid
Description: Les résultats sont évalués visuellement selon l'échelle suivante : • 0 pas d'activité, culture négative • + correspond à 10^3 colonies • ++ correspond à 10^4 colonies • +++ correspond à 10^6 colonies, et • ++++ correspond à 10^7 colonies.

Escherichia coli = assay: Lysis zone on agar plate; type: cell-based; settings: fatty acid on poly-L-Lysine 5×10^-3M, 50µl, 16 h at 37°
Streptocoque D = settings: fatty acid on poly-L-Lysine 5×10^-3M, 50µl, 16 h at 37°
Description: (§1) Les différents essais ont été réalisés selon le mode opératoire décrit en suivant. Les effets anti-bactéricides et anti-fongiques des solutions testées ont été évalués sur des boîtes contenant des milieux de cultures appropriés à la croissance : • gélose chocolat haemophilus pour la culture de Neisseria, • gélose BCP pour les germes peu exigeants, • gélose Mueller Hinton 2 (MH2-F) pour la majorité des souches bactériennes sauf Neisseria et les streptocoques, • gélose columbia ANC (COL ANC-F) pour les streptocoques, • gélose Sabouraud gentamicine chloramphénicol (SAB GENTA CHL-F) pour les candidas albicans et les levures en général, et • milieu Leowenstein, Coletsos pour Mycobacterium tuberculosis.
(§2) Les boîtes sont recouvertes par 1ml de solution bactérienne ou mycosique à la concentration de 0,5 à 1 de Mac Farland (lecture au densitomètre) soit 1,5×10^8 bactéries/ml.
(§3) La boîte est ensuite séchée 15 minutes à 37°, et on applique 2 gouttes (50µl) de chaque solution à tester.
(§4) La boîte de culture est recouverte après 16 heures d'incubation à 37°.
(§5) Chaque plage de lyse due à l'activité anti-bactérienne ou anti-fongique des conjugués est mesurée. La lecture de l'effet bactéricide ou antifongique est mesurée en cm^2.

Candida albicans = settings: fatty acid on poly-L-Lysine 5×10^-3M, 50µl, 16 h at 37°
Description: as §1, §2, §3, §4, §5

Proteus Mirabilis = settings: fatty acid on poly-L-Lysine 5×10^-3M, 50µl, 16 h at 37°
Description: as §1, §2, §3, §4, §5

Streptocoque B = settings: fatty acid on poly-L-Lysine 5×10^-3M, 50µl, 16 h at 37°
Description: as §1, §2, §3, §4, §5

Enterobacter Hafniae = settings: fatty acid on poly-L-Lysine 5×10^-3M, 50µl, 16 h at 37°
Description: as §1, §2, §3, §4, §5

Morganella Morganii = settings: fatty acid on poly-L-Lysine 5×10^-3M, 50µl, 16 h at 37°
Description: as §1, §2, §3, §4, §5

Klebsiella oxytoca = settings: fatty acid on poly-L-Lysine 5×10^-3M, 50µl, 16 h at 37°
Description: as §1, §2, §3, §4, §5

Nesseria = settings: fatty acid on poly-L-Lysine 5×10^-3M, 50µl, 16 h at 37°
Citrobacter koserii = settings: Citro bacter koserii; fatty acid on poly-L-Lysine 5×10^-3M; 50µl; 16 h at 37°
Staphylococcus aureus = assay: Lysis zone on agar plate; type: cell-based; settings: fatty acid on poly-L-Lysine 5×10^-3M, 50µl, 16 h at 37°
[2] = system: souche multirésistante de staphylococcus epidermidis; settings: each component's concentration within the combined solution capryl-poly-L-Lysine-lauryl + pyruvate-poly-L-Lysine
Pseudomonas aeruginosa = assay: Lysis zone on agar plate; type: cell-based; settings: fatty acid on poly-L-Lysine 5×10^-3M, 50µl, 16 h at 37°

Molecule: CCCCCCCCCC(=O)O [Acide Caprique]
- Activité bactéricide sur Escherichia coli ou Staphylococcus aureus du conjugué [1]: +++ (correspond à 10^6 colonies)
- Activité bactéricide sur Escherichia coli ou Staphylococcus aureus de l'acide gras seul [1]: ++++ (correspond à 10^7 colonies)

Molecule: CCCCCC(=O)O [Acide Caproïque]
- Activité bactéricide sur Escherichia coli ou Staphylococcus aureus du conjugué [1]: +++ (correspond à 10^6 colonies)
- Activité bactéricide sur Escherichia coli ou Staphylococcus aureus de l'acide gras seul [1]: ++ (correspond à 10^4 colonies)

Molecule: CCCCCCCCCCCC(=O)O [Acide Laurique]
- Activité bactéricide sur Escherichia coli ou Staphylococcus aureus du conjugué [1]: ++ (correspond à 10^4 colonies)
- Activité bactéricide sur Escherichia coli ou Staphylococcus aureus de l'acide gras seul [1]: ++++ (correspond à 10^7 colonies)

Molecule: CCCCCCCCCCCCCC(=O)O [Acide Myristique]
- Activité bactéricide sur Escherichia coli ou Staphylococcus aureus du conjugué [1]: + (correspond à 10^3 colonies)
- Activité bactéricide sur Escherichia coli ou Staphylococcus aureus de l'acide gras seul [1]: + (correspond à 10^3 colonies)

Molecule: CCCCCCCC/C=C\CCCCCCCC(=O)O [Acide Oléique]
- Activité bactéricide sur Escherichia coli ou Staphylococcus aureus du conjugué [1]: + (correspond à 10^3 colonies)
- Activité bactéricide sur Escherichia coli ou Staphylococcus aureus de l'acide gras seul [1]: + (correspond à 10^3 colonies)

Molecule: CCCCCCCCCCCCCCCC(=O)O [Acide Palmitique]
- Activité bactéricide sur Escherichia coli ou Staphylococcus aureus du conjugué [1]: + (correspond à 10^3 colonies)
- Activité bactéricide sur Escherichia coli ou Staphylococcus aureus de l'acide gras seul [1]: 0

Molecule: CC(=O)O [C2 = acetate]
- Activité bactéricide sur Escherichia coli ou Staphylococcus aureus du conjugué [1]: +++ (correspond à 10^6 colonies)
- Activité bactéricide sur Escherichia coli ou Staphylococcus aureus de l'acide gras seul [1]: 0

Molecule: CCCCC(=O)O [C5 = acide valérique, acide valérique]
- Activité bactéricide sur Escherichia coli ou Staphylococcus aureus du conjugué [1]: +++ (correspond à 10^6 colonies)
- Activité bactéricide sur Escherichia coli ou Staphylococcus aureus de l'acide gras seul [1]: 0

Molecule: Acide Caprylique
- Activité bactéricide sur Escherichia coli ou Staphylococcus aureus du conjugué [1]: +++ (correspond à 10^6 colonies)
- Activité bactéricide sur Escherichia coli ou Staphylococcus aureus de l'acide gras seul [1]: +++ (correspond à 10^6 colonies)

Molecule: Acide Palmitoléique
- Activité bactéricide sur Escherichia coli ou Staphylococcus aureus du conjugué [1]: +++ (correspond à 10^6 colonies)
- Activité bactéricide sur Escherichia coli ou Staphylococcus aureus de l'acide gras seul [1]: ++ (correspond à 10^4 colonies)

Molecule: Farnesyl-cystéine
- Activité bactéricide sur Escherichia coli ou Staphylococcus aureus du conjugué [1]: ++ (correspond à 10^4 colonies)
- Activité bactéricide sur Escherichia coli ou Staphylococcus aureus de l'acide gras seul [1]: 0

Molecule: acétyl-poly-L-Lysine [Acétyl- poly-L-Lysine]
- plage de lyse (Alcalescens Diaspar): 1,4cm^2
- plage de lyse (Escherichia coli): 0 cm^2
- plage de lyse (Streptocoque D): 4,15cm^2
- plage de lyse (Candida albicans): 1,97cm^2
- plage de lyse (Proteus Mirabilis): 0 cm^2
- plage de lyse (Streptocoque B): 3,14 cm^2 colonies
- plage de lyse (Enterobacter Hafniae): 2,71 cm^2
- plage de lyse (Morganella Morganii): 0 cm^2
- plage de lyse (Klebsiella oxytoca): 3,14 cm^2
- plage de lyse (Nesseria): 2,27cm^2
- plage de lyse (Citrobacter koserii): 1,77 cm^z cm^2
- plage de lyse (Staphylococcus aureus): 1,68 cm^2

Molecule: butyrate [C4 = butyrate]
- Activité bactéricide sur Escherichia coli ou Staphylococcus aureus du conjugué [1]: +++ (correspond à 10^6 colonies)
- Activité bactéricide sur Escherichia coli ou Staphylococcus aureus de l'acide gras seul [1]: 0

Molecule: butyryl-poly-L-Lysine [Butyryl- poly-L-Lysine]
- plage de lyse (Alcalescens Diaspar): 0,85 cm^2
- plage de lyse (Escherichia coli): 2,65 cm^2
- plage de lyse (Streptocoque D): 0 cm^2
- plage de lyse (Candida albicans): 2,3 cm^2
- plage de lyse (Proteus Mirabilis): 0 cm^2
- plage de lyse (Streptocoque B): 1,33 cm^2 qqls colonies
- plage de lyse (Enterobacter Hafniae): 2,03 cm^2
- plage de lyse (Morganella Morganii): 0 cm^2
- plage de lyse (Klebsiella oxytoca): 0 cm^2
- plage de lyse (Nesseria): 0,78 cm^2
- plage de lyse (Citrobacter koserii): 1,77 cm^2
- plage de lyse (Staphylococcus aureus): 1,82 cm^2

Molecule: capryl-poly-L-Lysine-lauryl [capryl-poly-Lysine-lauryl]
- concentration minimale inhibitrice [2]: < 1,25×10^5 M

Molecule: lactyl-Poly-L-Lysine
- plage de lyse (Alcalescens Diaspar): 1,53cm^2
- plage de lyse (Escherichia coli): 1,92 cm^2
- plage de lyse (Pseudomonas aeruginosa): 2,34 cm^2
- plage de lyse (Streptocoque D): 2,01 cm^2
- plage de lyse (Candida albicans): 1,05cm^2
- plage de lyse (Proteus Mirabilis): 0 cm^2
- plage de lyse (Streptocoque B): peu sensible
- plage de lyse (Enterobacter Hafniae): 1,44cm^2
- plage de lyse (Morganella Morganii): 0 cm^2
- plage de lyse (Klebsiella oxytoca): 0 cm^2
- plage de lyse (Nesseria): 1,65cm^2
- plage de lyse (Citrobacter koserii): 1,13 cm^2
- plage de lyse (Staphylococcus aureus): 1,82 cm^2

Molecule: propionate [C3 = propionate]
- Activité bactéricide sur Escherichia coli ou Staphylococcus aureus du conjugué [1]: +++ (correspond à 10^6 colonies)
- Activité bactéricide sur Escherichia coli ou Staphylococcus aureus de l'acide gras seul [1]: 0

Molecule: propionyl-poly-L-Lysine [Propionylpoy-L-lysine]
- plage de lyse (Alcalescens Diaspar): 1,13cm^2 inhibition partielle
- plage de lyse (Pseudomonas aeruginosa): 0 cm^2
- plage de lyse (Streptocoque D): 0 cm^2
- plage de lyse (Candida albicans): 2,13cm^2
- plage de lyse (Proteus Mirabilis): 0 cm^2
- plage de lyse (Streptocoque B): 0 cm^2
- plage de lyse (Enterobacter Hafniae): 1,12 cm^2
- plage de lyse (Morganella Morganii): 0 cm^2
- plage de lyse (Klebsiella oxytoca): 0 cm^2
- plage de lyse (Nesseria): 1,13 cm^2
- plage de lyse (Citrobacter koserii): 0 cm^2
- plage de lyse (Staphylococcus aureus): 2,3 cm^2

Molecule: pyruvyl-poly-L-Lysine
- plage de lyse (Alcalescens Diaspar): 1,53cm^2
- plage de lyse (Escherichia coli): 2,09 cm^2
- plage de lyse (Pseudomonas aeruginosa): 1,32 cm^2
- concentration minimale inhibitrice [2]: < 1,25×10^4 M
- plage de lyse (Streptocoque D): 2,27 cm^2
- plage de lyse (Candida albicans): 2,46 cm^2
- plage de lyse (Proteus Mirabilis): 0 cm^2
- plage de lyse (Streptocoque B): 1,77cm^2 qqls colonies
- plage de lyse (Enterobacter Hafniae): 2,27 cm^2
- plage de lyse (Morganella Morganii): 0 cm^2
- plage de lyse (Klebsiella oxytoca): 1,33 cm^2
- plage de lyse (Nesseria): 2,01cm^2
- plage de lyse (Citrobacter koserii): 1,54 cm^2
- plage de lyse (Staphylococcus aureus): 2,13 cm^2
